# Assay: Reactive nitrogen species (RNS) after oral dosing of fasted rats, diaminonapthalene derivitization (DAN) assay
# Format: in vivo, Sprague-Dawley (SD) rats
# Conditions: fasted SD rats, 40 mpk PO
# Method: The dinitrate compounds of the invention provide enhanced NO release over mononitrate analogs. While mononitrate compounds orally dosed to rats result in reactive nitrite species circulating in plasma with maximal concentration in the 0.5-2.8 μM range, similar dosing of compounds of the present invention result in an unexpectedly large increase in circulating nitrite concentrations. A consideration of stoichiometry leads to an expectation of a doubling of nitrite levels. Compounds of the invention, however, provide a nitrite level increase more than two fold.
# Biochemical evidence for the generation of NO in vivo in response to test compound administration was obtained from studies in Sprague-Dawley (SD) rats. Administration of test compound to fasted SD rats (40 mpk, PO) results in the appearance of reactive nitrogen species (RNS), assessed using the diaminonapthalene derivitization (DAN) assay. Compounds 1-2 as numbered and identified in Table 1 below were tested.
smiles,measurement,setting,value
CCCCc1nc(Cl)c(COC(=O)CCC[C@@H](CO[N+](=O)[O-])O[N+](=O)[O-])n1Cc1ccc(-c2ccccc2-c2nnn[nH]2)cc1 [Compound 2],RNS levels (result in words),Compounds 1-2 compared,improved RNS levels
same,RNS levels,Time 0 h,0.6 ± 0.11
same,RNS levels,Time 1 h,9.8 ± 3.8
same,RNS levels,Time 3 h,3.1 ± 2.48
same,RNS levels,Time 6 h,2.1 ± 1.65
same,RNS levels,"Time 24 h, in µM",0.5 ± 0.26
"CCCCc1nc(Cl)c(COC(=O)CCCO[N+](=O)[O-])n1Cc1ccc(-c2ccccc2-c2nnn[nH]2)cc1 [Compound 1, reference compound]",RNS levels,"Time 0 h, in µM",0.7 ± 0.12
same,RNS levels,"Time 1 h, in µM",1.1 ± 0.22
same,RNS levels,"Time 3 h, in µM",1.1 ± 0.26
same,RNS levels,"Time 6 h, in µM",1.1 ± 0.34
same,RNS levels,"Time 24 h, in µM",1.7 ± 0.15
